pIC50: −log10 of the molar value.
Assays:
[1] = tested on: K562 human chronic myeloid leukaemia cells; experiment: In vitro cytotoxicity, MTT assay; format: cell-based; settings: K562, 1 hour drug exposure, MTT after 4 days
Protocol: K562 human chronic myeloid leukaemia cells were maintained in RPM1 1640 medium supplemented with 10% fetal calf serum and 2 mM glutamine at 37° C. in a humidified atmosphere containing 5% CO2 and were incubated with a specified dose of drug for 1 hour at 37° C. in the dark. The incubation was terminated by centrifugation (5 min, 300 g) and the cells were washed once with drug-free medium. Following the appropriate drug treatment, the cells were transferred to 96-well microtiter plates (10^4 cells per well, 8 wells per sample). Plates were then kept in the dark at 37° C. in a humidified atmosphere containing 5% CO2. The assay is based on the ability of viable cells to reduce a yellow soluble tetrazolium salt, 3-(4,5-dimethylthiazol-2-yl)-2,5-diphenyl-2H-tetrazolium bromide (MTT, Aldrich-Sigma), to an insoluble purple formazan precipitate. Following incubation of the plates for 4 days (to allow control cells to increase in number by approximately 10 fold), 20 μL of MTT solution (5 mg/mL in phosphate-buffered saline) was added to each well and the plates further incubated for 5 hours. The plates were then centrifuged for 5 minutes at 300 g and the bulk of the medium pipetted from the cell pellet leaving 10-20 μL per well. DMSO (200 μL) was added to each well and the samples agitated to ensure complete mixing. The optical density was then read at a wavelength of 550 nm on a Titertek Multiscan ELISA plate reader, and a dose-response curve was constructed.

[2] = tested on: calf thymus DNA (CT-DNA); experiment: DNA thermal denaturation (melting) studies; format: binding; settings: CT-DNA 100 μM DNAp, compound 20 μM, 37 °C; for Induced ΔTm after incubation 0 hours: pH 7.00, 0 hours; for Induced ΔTm after incubation 4 hours: pH 7.00, 4 hours; for Induced ΔTm after incubation 18 hours: pH 7.00, 18 hours
Outline: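 CT-DNA at 100 μM (50 μM bp) with test compound at 20 μM in pH 7.00 10 mM sodium phosphate/1 mM EDTA, preincubated at 37.0 °C for 0–18 h (up to 72 h for some compounds). Absorbance at 260 nm, heated 1 °C/min over 45–98 °C; Tm from melting-profile midpoint, ΔTm versus free DNA, MeOH-corrected, mean±SD of ≥3.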

Row | Structure (SMILES) | pIC50 [1] | Induced ΔTm after incubation 0 hours [2] [°C] | Induced ΔTm after incubation 4 hours [2] [°C] | Induced ΔTm after incubation 18 hours [2] [°C]
1 | COC(=O)c1cc(NC(=O)c2cc(NC(=O)CCCOc3cc4c(cc3OC)C(=O)N3CCC[C@H]3C=N4)cn2C)cn1C [Compound 23, (11aS) Methyl 4-({4-[4-(7-Methoxy-6-oxo-2,3,5,11a-tetrahydro-5H-pyrrolo[2,1-c][1,4]benzodiazepine-8-yloxy)-butyrylamino]-1-methyl-1H-pyrrole-2-carbonyl}-amino)-1-methyl-1H-pyrrole-2-carboxylate] | 8.44 | 13.9 | 15.0 | 15.6
2 | COC(=O)c1cc(NC(=O)c2cc(NC(=O)c3cc(NC(=O)CCOc4cc5c(cc4OC)C(=O)N4CCC[C@H]4C=N5)cn3C)cn2C)cn1C [Compound C11, (11aS) Methyl 4-{[4-({4-[4-(7-Methoxy-5-oxo-2,3,5,11a-tetrahydro-5H-pyrrolo[2,1-c][1,4]benzodiazepine-8-yloxy)-propionylamino]-1-methyl-1H-pyrrole-2-carbonyl]-amino)-1-methyl-1H-pyrrole-2-carbonyl]-amino}-1-methyl-1H-pyrrole-2-carboxylate] | 6.46 | 7.9 | 8.4 | 9.6

From patent US8637664B2, “Alkyl 4- [4- (5-oxo-2,3,5, 11a-tetrahydo-5H-pyrrolo [2, 1-c] [1,4] benzodiazepine-8-yloxy)-butyrylamino]-1H-pyrrole-2-carboxylate derivatives and related compounds for the treatment of a proliferative disease” (Spirogen SARL, priority 2005, dated 2014)
